# Reference: patent publication US20040072865A1, “Aryl piperidine derivatives as inducers of ldl-receptor expression” (priority 2003, published 2004)
# Read-outs that look alike come from different tables or passages of the source.
# What was measured:
# [1] = system: fat-fed hamsters; assay: Oral administration to fat-fed hamsters, reduction in VLDL/LDL cholesterol and TG plasmatic levels; assay type: in vivo, hamster; conditions: for ED50: Mesocricetus auratus, 72 h, fat-fed hamsters, oral, once a day for 3 days, reductions in VLDL/LDL cholesterol and TG plasmatic levels, read-out: In vivo (ED50)
# Method: The in vivo profile of the compounds is evaluated by oral administration of the compounds of the invention to fat-fed hamsters. Measurements of VLDL/LDL cholesterol and triglycerides upon treatment allow to determine the activity.
# Compounds were prepared for oral administration by milling with 0.5% hydroxypropylmethylcellulose and 5% Tween 80. Hamsters were fed for 2 weeks with a diet containing 0.2% of cholesterol and 10% of coconut oil. Then compounds were administrated once a day for 3 days, from 20 to 0.2 mg/kg. Plasma lipid levels including total cholesterol, VLDL/LDL cholesterol, VLDL/LDL triglycerides and HDL-cholesterol were determinated after ultracentrifugation (density 1.063 g/ml to separate VLDL/LDL fraction and HDL fraction) using the Biomerieux erizymatic kit. Reductions in VLDL/LDL cholesterol and TG plasmatic levels were calculated taking solvant treated animals as control and ED50 of each compound was determined.
# [2] = system: LDL-r promoter; assay: LDL-r promoter luciferase reporter gene assay in stably transfected HepG2 cells; assay type: cell-based, human; conditions: read-out: In vitro (IC50)
Compound,melting point [°C],also measured
Cc1ccc(C2CCN(CCCCNC(=O)c3ccc(-c4ccc(C#N)cc4)cc3)CC2)c(OP(=O)(O)O)c1,70,
CCOP(=O)(OCC)Oc1cc(CC)ccc1C1CCN(CCCCNC(=O)c2ccc(NC(=O)c3ccc(Cl)cc3)cc2)CC1,158 to 160,
"CC(=O)Oc1cc(C)ccc1C1CCN(CCCCNC(=O)c2ccc(NC(=O)c3ccc(Cl)cc3)cc2)CC1 [Example 2, Acetic Acid 2-(1-{4-[4-(4-chloro-benzoylamino)-benzoylamino]-butyl}-piperidin-4-yl)-5-methyl-phenyl Ester]",210,ED50 [1]: 5 mg/kg
"CCOP(=O)(OCC)Oc1cc(C)ccc1C1CCN(CCCCNC(=O)c2ccc(NC(=O)c3ccc(Cl)cc3)cc2)CC1 [Example 3, Phosphoric Acid 2-(1-{4-[4-(4-chloro-benzoylamino)-benzoylamino]-butyl}-piperidin-4-yl)-5-methyl-phenyl Ester Diethyl Ester]",230,"ED50 [1]: 5 mg/kg; IC50 ([2]; Homo sapiens, HepG2 cells with LDL-r promoter-luciferase construct, 24 hours incubation, induction of luciferase activity): 30 nM"
"Cc1ccc(C2CCN(CCCCNC(=O)c3ccc(NC(=O)c4ccc(Cl)cc4)cc3)CC2)c(O)c1.Cl [Example 1, 4-(4-chloro-benzoylamino)-N-{4-[4-(5-methyl-2-piperidinyl-phenol)]-butyl}-benzamide Hydrochloride]",,"In vivo (ED50) ([1]; hamster, in vivo, po): 10 to 15 mg/kg; IC50 [2]: 30 nM"

# Now from value to molecule, other results behind:
melting point [°C],Compound,also measured
184,"Cc1ccc(C2CCN(CCCCNC(=O)c3ccc(-c4ccc(C#N)cc4)cc3)CC2)c(O)c1 [Example 20, 4′-Cyano-biphenyl-4-carboxylic Acid {4-[4-(2-hydroxy-4-methyl-phenyl)-piperidin-1-yl]-butyl}-amide]",
128 to 130,"CC(=O)Oc1cc(C)ccc1C1CCN(CCCCNC(=O)c2ccc(-c3ccc(C#N)cc3)cc2)CC1 [Example 21, Acetic Acid 2-(1-{4-[(4′-cyano-biphenyl-4-carbonyl)-amino]-butyl}-piperidin-4-yl)-5-methyl-phenyl Ester]",
252,"CCc1ccc(C2CCN(CCCCNC(=O)c3ccc(-c4ccc(C#N)cc4)cc3)CC2)c(O)c1 [Example 6, 4′-Cyano-biphenyl-4-carboxylic Acid {4-[4-(2-hydroxy-4-ethyl-phenyl)-piperidin-1-yl]-butyl}-amide]",
192 to 194,"CCc1ccc(C2CCN(CCCCNC(=O)c3ccc(NC(=O)c4ccc(Cl)cc4)cc3)CC2)c(OC(C)=O)c1 [Example 5, Acetic Acid 2-(1-{4-[4-(4-chloro-benzoylamino)-benzoylamino]-butyl}-piperidin-4-yl)-5-ethyl-phenyl Ester]",
